This note sets out measurements from PMC11509018, “Evaluation of the Role of Tanshinone I in an In Vitro System of Charcot-Marie-Tooth Disease Type 2N” (International Journal of Molecular Sciences, 2024).

In this test the target is T1, AlaRS R329H binding to GST-Nrp1 b1 (Homo sapiens, UniProt P49588, R329H).
T1 construct: made in house; host or cells: E. coli BL21 (DE3), pET-21a for AlaRS
T1 sequence (P49588 1-968 R329H): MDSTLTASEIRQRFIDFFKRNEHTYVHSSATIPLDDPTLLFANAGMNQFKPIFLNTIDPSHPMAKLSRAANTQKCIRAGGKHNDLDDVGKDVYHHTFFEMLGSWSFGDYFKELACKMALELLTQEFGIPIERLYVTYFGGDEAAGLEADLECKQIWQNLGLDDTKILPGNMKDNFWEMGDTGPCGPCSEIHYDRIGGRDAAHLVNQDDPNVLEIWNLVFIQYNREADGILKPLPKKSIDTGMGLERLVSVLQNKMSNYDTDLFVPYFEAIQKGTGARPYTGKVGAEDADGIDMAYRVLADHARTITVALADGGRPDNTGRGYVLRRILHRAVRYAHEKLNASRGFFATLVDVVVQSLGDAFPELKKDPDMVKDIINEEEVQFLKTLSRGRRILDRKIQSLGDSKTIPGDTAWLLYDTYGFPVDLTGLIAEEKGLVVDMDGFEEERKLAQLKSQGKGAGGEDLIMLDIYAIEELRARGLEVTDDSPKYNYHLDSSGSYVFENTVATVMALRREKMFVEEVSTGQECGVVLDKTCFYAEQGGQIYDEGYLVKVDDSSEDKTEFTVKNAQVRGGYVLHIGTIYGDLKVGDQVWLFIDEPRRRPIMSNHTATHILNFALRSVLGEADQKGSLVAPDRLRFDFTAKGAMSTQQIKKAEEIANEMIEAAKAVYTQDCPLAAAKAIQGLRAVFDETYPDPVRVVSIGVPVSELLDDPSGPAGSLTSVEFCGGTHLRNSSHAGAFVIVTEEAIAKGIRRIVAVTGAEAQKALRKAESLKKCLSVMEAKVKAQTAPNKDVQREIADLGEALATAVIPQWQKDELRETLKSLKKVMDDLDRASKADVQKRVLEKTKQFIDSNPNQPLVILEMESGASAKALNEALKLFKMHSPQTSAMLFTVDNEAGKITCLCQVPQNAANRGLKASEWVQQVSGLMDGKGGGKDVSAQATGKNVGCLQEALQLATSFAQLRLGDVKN
Kind of test: GST pull down assay. As to conditions: 20 µM Tanshinone I, ImageJ, average of three repeats. The method, then: To further investigate whether Tanshinone I-induced conformational changes in AlaRS CMT mutants affect their interaction with Nrp1, Co-IP experiments were performed in cells treated with Tanshinone I. By comparing Co-IP results obtained before and after treatment, we assessed the influence of the drug on the binding strength and mode between the AlaRS CMT mutants and Nrp1. […] To confirm the direct effect of Tanshinone I on the interaction between AlaRS CMT mutants and Nrp1, pull-down experiments were performed. […] Given that the interaction between AlaRS mutants and Nrp1 is associated with disease progression in CMT, the ability of Tanshinone I to disrupt this binding highlights its potential to intervene in the pathogenic mechanisms of these diseases.
Figure 7 The impact of Tanshinone I on the interaction between AlaRS mutants and Nrp1. (A) Co-IP assays were conducted to assess the binding between HA-AlaRS mutants and Nrp1, both with and without treatment with 20 µM Tanshinone I for 24 h. […] (C) Pull down assay was performed to detect the binding between AlaRS mutants and GST-Nrp1 b1 with or without 20 µM Tanshinone I. (D) Relative quantification statistics of the AlaRS mutants pulled down from the GST pull down experiments after Tanshinone I treatment were performed using ImageJ. (E) The cell viability of 293T and NSC34 cells treated with different concentrations of Tanshinone I was assessed using the CCK-8 assay over a 24 h period. TEXT PRINTED IN THE PICTURE: (B) Tanshinone I: Mean density band (N71Y): 0.60; Mean density band (G102R): 0.53; Mean density band (R326W): 0.50; Mean density band (R329H): 0.50; Mean density band (E337K): 0.62 | (D) Tanshinone I: Mean density band (N71Y): 0.82; Mean density band (G102R): 0.76; Mean density band (R326W): 0.84; Mean density band (R329H): 0.84; Mean density band (E337K): 0.90
To detect the direct interactions between the mutant proteins and Nrp1 in vitro, we performed a Glutathione S-transferase (GST) pull-down assay. AlaRS mutants fused with 6 × His were purified with Ni-NTA beads, followed by chromatography on a HiTrap Q HP column. Nrp1 b1 fragments fused with GST were purified with Glutathione Beads (#SA008100, Smart-Lifesciences, Changzhou, China). For GST pull-down assays, 1000 μg of each GST-fused Nrp1 b1 fragment was mixed with 200 μg of 6 × His-tagged fusion protein in binding buffer (50 mM Tris-HCl pH 7.5, 20 mM NaCl, 5% glycerol, 5 mM DTT with 0.1% BSA) at 4 °C overnight. The mixture was next incubated with 30 μL glutathione beads at 4 °C with constant rotation for 2–4 h. Subsequently, the bead/protein complex was washed three times, and eluted with 30 μL 2 × SDS sample buffer. The samples were then subjected to SDS-PAGE analysis. The experiment was repeated three times.

On to `Cc1coc2c1C(=O)C(=O)c1c-2ccc2c(C)cccc12` [Tanshinone I], for which the “Mean density band (R329H), relative quantification of AlaRS mutant pulled down” value worked out at 0.84.
